US20240325530A1, “COMBINATION THERAPIES” (Versanis Bio, Inc., priority 2021, published 2024)
Like-named read-outs stand apart in the source and are kept apart here. Values belong to the molecule of their own block, whether it stands above or below them.

Tests used:
[1] = Obese mouse model (60% fat diet), initial study: food intake, body composition by MRI, physical activity; set-up: species or system C57B1/6J mice; details: in vivo
Procedure: C57B1/6J mice at 5-6 weeks of age were fed a 60% fat diet for 14 weeks and reached an average body weight of 49 grams at the start of dosing, as an obese mouse model. Employing a modified 3×3 factorial design, groups of mice (n=8 per group) received a murinized version of bimagrumab, CDD866, at 0.3 mg/kg or 20 mg/kg intraperitoneally (i.p.) weekly and/or semaglutide at 5 μg/kg or 40 μg/kg subcutaneously (s.c.) daily. The high fat diet was continued through the treatment period, and food intake and body weight were monitored twice weekly. Clinical observations, body composition by MRI, and physical activity, were assessed once weekly.

[2] = Pharmacokinetics of semaglutide and CDD866 alone and combined in DIO mice; assay type: in vivo; details: analyte semaglutide, mean plasma; for MRT inf / MRT last: mouse; for MRT inf: read-out: MRT0-inf; for MRT last: read-out: MRT0-last
Procedure: Dedicated cohorts of diet induced obesity (DIO) mice were used. Blood sampling was performed at 5 time points, with 3 mice per time point.

[3] = DIO mice: CDD866 combined with semaglutide, liraglutide or tirzepatide (body weight, fat, lean mass, food intake, open field); assay type: in vivo; details: Day 22, DIO mice; CDD866 20 mg/kg, semaglutide 40 μg/kg, tirzepatide 45/22.5 μg/kg (Table 4)
Procedure: DIO mice received a murinized version of bimagrumab, CDD866, at 20 mg/kg intraperitoneally (i.p.) weekly in combination with semaglutide (40 μg/kg once daily), liraglutide (40 μg/kg twice daily), or tirzepatide at 45 μg/kg once daily and after day 11, 22.5 μg/kg once daily) subcutaneously (s.c.). The GLP-1 agonists in this study were not dose escalated.

[4] = overweight and obese patients; cited from earlier work
[5] = group CDD866-20 mpk + Semaglutide-40 ug/kg

clinical observations [1]: no clinical observations of concern
Tlast [2, 5]: 24.0 h
Tlast ([2]; group Semaglutide-5 ug/kg): 8.00 h
Tlast ([2]; group Semaglutide-40 ug/kg): 24.0 h
MRT inf [2, 5]: 16.6 h
MRT last [2, 5]: 9.76 h
MRT last ([2]; group Semaglutide-5 ug/kg): 4.38 h
MRT inf ([2]; group Semaglutide-40 ug/kg): 15.2 h
MRT last ([2]; group Semaglutide-40 ug/kg): 10 h
Molecule: CC[C@H](C)[C@H](NC(=O)[C@H](Cc1ccccc1)NC(=O)[C@H](CCC(=O)O)NC(=O)[C@H](CCCCNC(=O)COCCOCCNC(=O)COCCOCCNC(=O)CC[C@H](NC(=O)CCCCCCCCCCCCCCCCC(=O)O)C(=O)O)NC(=O)[C@H](C)NC(=O)[C@H](C)NC(=O)[C@H](CCC(N)=O)NC(=O)CNC(=O)[C@H](CCC(=O)O)NC(=O)[C@H](CC(C)C)NC(=O)[C@H](Cc1ccc(O)cc1)NC(=O)[C@H](CO)NC(=O)[C@H](CO)NC(=O)[C@@H](NC(=O)[C@H](CC(=O)O)NC(=O)[C@H](CO)NC(=O)[C@@H](NC(=O)[C@H](Cc1ccccc1)NC(=O)[C@@H](NC(=O)CNC(=O)[C@H](CCC(=O)O)NC(=O)C(C)(C)NC(=O)[C@@H](N)Cc1cnc[nH]1)[C@@H](C)O)[C@@H](C)O)C(C)C)C(=O)N[C@@H](C)C(=O)N[C@@H](Cc1c[nH]c2ccccc12)C(=O)N[C@@H](CC(C)C)C(=O)N[C@H](C(=O)N[C@@H](CCCNC(=N)N)C(=O)NCC(=O)N[C@@H](CCCNC(=N)N)C(=O)NCC(=O)O)C(C)C [Semaglutide, semaglutide]

Molecule: tirzepatide
Body weight [3]: 40.2 ± 1.3 g
Fat [3]: 12.7 ± 1.4 g
Lean mass [3]: 25.4 ± 0.4 g

B1: Bimagrumab: ActRII receptor antibody, sequences SEQ ID NO: 1-10 (antibody, chains of the INN, looked up, V domains shown)
VH: QVQLVQSGAEVKKPGASVKVSCKASGYTFTSSYINWVRQAPGQGLEWMGTINPVSGSTSYAQKFQGRVTMTRDTSISTAYMELSRLRSDDTAVYYCARGGWFDYWGQGTLVTVSS
VL: QSALTQPASVSGSPGQSITISCTGTSSDVGSYNYVNWYQQHPGKAPKLMIYGVSKRPSGVSNRFSGSKSGNTASLTISGLQAEDEADYYCGTFAGGSYYGVFGGGTKLTVL
increase in muscle mass [4]: 4-8%
